Results reported in patent US20160151403A1, “SMALL MOLECULE MODULATORS OF P53 FAMILY SIGNALING” (The Trustees of the University of Pennsylvania, priority 2006, published 2016).
Entries after “also recorded” stand apart in the source; their conditions may differ.

Key:
[1] = test system: p53 protein expression in HCT116 cells; assay: Western blot of p53 protein in parental HCT116 cells; assay type: cell-based, human; conditions: FIG. 2A
Method: Cells were collected and protein concentration was quantified by the Bio-Rad protein assay prior to SDS-PAGE. Proteins were transferred to a PVDF membrane (Immobilon-P, Millipore Corporation, Bedford, Mass.) by a semi-dry transfer apparatus (Bio-Rad Laboratories, Hercules, Calif.). The membranes with transferred proteins were blotted with 10% W/V non-fat dry milk and then incubated with the primary antibody and subsequently secondary antibodies, which were labelled by horseradish peroxidase, or infrared dyes (IR). Signals were visualized by either ECL (Amersham Pharmacia Biotech, England, UK) and exposed to an X-ray film, or scanned by the Odyssey Infared Imaging System (LI-COR Biosciences, Lincoln, Nebr.). Anti-p53, DO-1, was from Santa Cruz biotechnology, Inc. (Santa Cruz, Calif.), anti-p73 (AB-1) and anti-p21 (AB-1) were obtained from Calbiochem (San Diego, Calif.). Anti-ser20 of p53 Cell were obtained from Signaling Technology (Danvers, Mass.) and anti-DR5 antibody was obtained from Cayman Chemical (Ann Arbor, Mich.).
The chemical library screening was directed at restoring “p53 responses” in p53-deficient cells. The small molecules identified by the cell-based screening procedure appeared to be able to restore p53 responses in p53-deficient colon tumors and to eliminate viable cells. Their function was further tested on wild-type p53-expressing and p53-knockout HCT116 colon adenocarcinoma cell lines. A number of candidate modulators of signaling by the p53 family appeared to induce expression of p53 target genes such as p21 or DR5(13) either with or without stabilizing p53 protein in HCT116 cells (FIG. 2A).

[2] = test system: HCT116/p53(−/−)/PG13 cells; assay: p53 transcriptional activity, PG13 reporter, HCT116/p53(-/-)/PG13 cells; assay type: cell-based, human; conditions: p53-null HCT116, 16 h, bioluminescence
Method: Cells were treated by the indicated compounds at progressive 1:2 serial dilutions for 16 h, and the luciferase activities were detected by bioluminescence imaging. Fold induction was calculated by comparing to the nontreated cells;

HCT116/p53^+/+ cells = assay: Flow cytometry cell cycle profile, HCT116/p53(+/+); assay type: cell-based, human; conditions: #17 200 μM, #23 10 μM
Method: (§1) FIGS. 3A-3F show: Structures (A) of isolated compounds and summary of their effects on the p53 family and transcriptional targets (B). Cell cycle profiles of HCT/p53(+/+) and HCT/p53(−/−) in response to treatment by selected compounds (C-E). The dose of #17 was 200 μM and for #23 it was 10 μM. F, p73 protein levels were elevated in HCT116/p53(−/−) cells in response to treatment by selected compounds at various concentrations as indicated;
(§2) Adherent cells in a 6-well plate were trypsinized and collected in 15 ml centrifuge tubes to which were added the originally floating cells. The collected cells were ethanol-fixed and stained with propidium iodide (Sigma, St. Louis, Mo.). The DNA content of the stained cells was then measured using an Epics Elite flow cytometer (Beckman-Coulter, Fullerton, Calif.).
(§3) The ability of selected compounds from the chemical library screen to induce apoptosis of human colon tumor cells and the dependence of their effects on endogenous p53 status was further evaluated.

HCT116/p53^−/− cells = assay: Flow cytometry cell cycle profile, HCT116/p53(-/-); assay type: cell-based, human; conditions: for sub-G1 peak (apoptosis): HCT116/p53^−/−, #17 200 μM, #23 10 μM
Method: as §1, §2, §3

[3] = test system: p73 in HCT116/p53^−/− cells; assay: Effect of p73 knockdown (si-p73 retrovirus) on compound-induced p53-responsive transcriptional activity; assay type: cell-based, human; conditions: retrovirus mediated si-p73, HCT116/p53^−/− cells, FIG. 5D
Method: FIGS. 5A-5D show p53 transcriptional activity is induced in DLD1 xenografts and effects of knockdown of p73 by siRNA on drug-induced transcriptional activity. DLD1/PG13 cells were inoculated subcutaneously with 5 million cells. At 24 hours later mice were treated with selected compounds (100 mg/kg for #1, 50 mg/kg for #14 and #17, and 10 mg/kg for #23), and subsequently bioluminescence imaging was carried out after 16 hours. Two weeks later, tumor masses were weighed. A, bioluminescence imaging of p53 transcriptional activity induced in vivo. B, calculated fold-induction of p53 transcriptional activity. C, inhibition of tumor growth by selected compounds. D, effects of si-TAp73 on the transcriptional activity induced by selected compounds;
pBS/U6 vector containing TAp73 RNAi were kindly provided by Leif W. Ellisen (20), Harvard Medical School, from which the expression cassette was removed and recombined to pSIREN-RetroQ (Clontech Laboratories, Inc. Mountain View, Calif.), which was reconstructed to express a blasticidin-resistant marker.
The questioned whether the p53 family member p73 is involved in the p53-responsive transcriptional activity induced by the compounds identified was then tested. p63, the other p53 family member, was not tested, because the TA form of p63 is rarely expressed in malignant and normal tissues except for germ cells of the ovary and testis.

γH2AX = γH2AX test (DNA damage signaling); assay type: cell-based; conditions: after treatment
[4] = Toxicity in xenograft-bearing mice; assay type: in vivo; conditions: i.p., #1 100 mg/kg, #14 50 mg/kg, #23 10 mg/kg
Method: Compounds #1, #14, #17, and #23 were tested in colon-tumor xenograft-bearing mice in order to evaluate their toxicities and potential anti-tumor effects (FIG. 4). […] The initial doses were chosen below maximal tolerated doses based on the NCI DTP toxicology databases for chemical compound testing in vivo so that mice would survive drug administration and allow subsequent evaluation of anti-tumor effects. p53-null HCT116 xenografts were first tested to document anti-tumor effects in p53-deficient tumors and an experiment to simulate therapy of established tumors was designed. A total of 2×10^6 p53-null HCT116 cells were implanted on opposite flanks subcutaneously in each of 6 nude mice in each group. When tumor masses grew to about 3-5 mm in diameter, drugs were administered intra-peritoneally (#1: 100 mg/kg; #14: 50 mg/kg; #23: 10 mg/kg), and on the next day additional groups received intravenous TRAIL (15) (100 μg/mice via the tail vein). Tumor weights were determined at 7 days later. […] Nonetheless in the future it may be possible to modify the structure of #17 or identify doses where synergistic interactions with TRAIL may be observed.

| Compound | p53 protein expression [1] | p53 transcriptional activity (reporter assay response) [2] | sub-G1 peak (apoptosis) (HCT116/p53^+/+ cells) | sub-G1 peak (apoptosis) (HCT116/p53^−/− cells) | compound-induced p53-responsive transcriptional activity after knockdown of p73 [3] | γH2AX (γH2AX) | overt toxicities in treated mice [4] | G1 arrest on apoptosis induction (HCT116/p53^−/− cells; p53-null HCT116 cells, compared with wild-type p53-expressing HCT116) |
| --- | --- | --- | --- | --- | --- | --- | --- | --- |
| CO[C@H]1[C@@H](O)[C@@H](C)O[C@H](O[C@H]2[C@H](Oc3cccc4c(O)c5c(=O)oc6ccc(C)c7c(=O)oc(c34)c5c67)O[C@H](C)[C@H](O)[C@@H]2O)[C@@H]1O [#1] | increase p53 expression; also recorded: significantly increased p53 protein levels | stronger responses in the reporter assays | induced a sub-G1 peak characteristic of apoptosis | induced a sub-G1 peak characteristic of apoptosis | suppressed | not | No overt toxicities were observed | – |
| COc1cccc2c1C(=O)c1c(O)c3c(c(O)c1C2=O)CC(O)(/C(C)=N/O)CC3OC1CC(N)C(O)C(C)O1 (stereo not shown) [#14] | increase p53 expression; also recorded: significantly increased p53 protein levels | stronger responses in the reporter assays | induced a sub-G1 peak characteristic of apoptosis | induced a sub-G1 peak characteristic of apoptosis | suppressed | positive | No overt toxicities were observed | – |
| COc1cccc2c1C(=N)c1c(O)c3c(c(O)c1C2=O)C[C@@](O)(C(C)=O)C[C@@H]3O[C@H]1C[C@H](N)[C@H](O)[C@H](C)O1 [#23] | increase p53 expression; also recorded: significantly increased p53 protein levels | stronger responses in the reporter assays | induced a sub-G1 peak characteristic of apoptosis | induced a sub-G1 peak characteristic of apoptosis | suppressed | positive | No overt toxicities were observed | greatly reduced G1 arrest |
